Test results from US4568690A, “1-Methyl-5-p-methylbenzoylpyrrole-2-acetamidoacetanilides with antiinflammatory, analgesic, antipyretic and anti-platelet aggregant activity” (priority 1983, dated 1986).
Like-named read-outs stand apart in the source and are kept apart here.

Assays:
[1] = test system: platelet aggregation (ADP-induced); experiment: in vitro anti-platelet aggregant activity (Born's method, ADP); assay type: cell-based, rat; conditions: for inhibition at 1 µg/mL / inhibition at 5 µg/mL / inhibition at 10 µg/mL: Rattus norvegicus, Platelet, read-out: Inhibition % (platelet aggregation)
Method: This activity was studied in vitro following Born's method (G. W. R. Born, Nature, 194, 937 (1962)) and inducing platelet aggregation with ADP. […] For the aggregation test, 0.2 ml of platelet rich plasma was mixed with a NaCl solution (0.9%) to which the test substance was added up to a final volume of 0.6 ml. Incubation was fixed at 3 minutes at 27° C. After aggregation was induced with ADP, the course of the aggregation was monitored continuously with an Elvi 840 Aggregometer (Elvi Logos--Milan). The antiaggregant effects were determined by the difference in the light transmission of the sample with respect to that of the ADP control. The test compound was compared with aspirin, which has known antiplatelet aggregant activity (H. J. Weiss et al., J. Clin. Inv., 47, 2169 (1968); Platelet Aggregation and Drugs, edited by L. Caprino and E. C. Rossi, page 235, Academic Press (London), 1974).
Table VI reports the inhibition of platelet aggregation with various doses of the compounds tested at a constant ADP concentration.

[2] = test system: gastric mucosa; experiment: gastric tolerance (ulcerogenic activity); conditions: orally, four consecutive days; for Mean number severity: severity scale 0-5
Method: This was studied by testing ulcerogenic activity in male Wistar rats weighing an average of 180 g, using groups of 10 animals each. Three doses of each substance were used, and one group of animals was treated with vehicle only, in a volume of 10 ml/g body weight. Each dose was administered orally for four consecutive days, and the rats were killed on the fifth day and autopsied. The ulcerogenic effect was evaluated on the following scale:
(1) each hemorrhage point >1 mm was evaluated as 1 lesion
(2) the hemorrhage points <1 were counted as follows:
(b) from 1 to 19 2 lesions
(c) from 1 to 29 3 lesions
(2) gastric mucosa irritation
(3) hemorrhage points <1 mm
(4) hemorrhage points from 1 to 3 mm
(5) hemorrhage points >3 mm
This scale was used to calculate the following index of gastric damage: [formula]

[3] = test system: hyperthermia induced by dry purified beer yeast; experiment: antipyretic activity, beer yeast-induced hyperthermia; assay type: in vivo, Wistar strain male albino rats
Method: (§1) Preparations of the compound were administered orally and/or parenterally in a suspension in 0.59% carboxymethylcellulose in pH neutral physiological saline.
This effect was evaluated by inducing hyperthermia in Wistar strain male albino rats with an average weight of 250±10 g, injecting them intraperitoneally with a 10% suspension of dry purified beer yeast (Carlo Erba) in a volume of 10 ml/Kg of body weight, according to the method of S. Wong et al. (J. Pharmac. Exp. Ther., 185 (1), 127 (1973)).

[4] = test system: carragenin-induced edema; experiment: carragenin-induced edema test (antinflammatory activity); assay type: in vivo, rats
Method: as §1
This effect was evaluated with an experimental model reproducing actue inflammation in rats: the carragenin-induced edema test was used, according to the method of C. A. Winter (G. Pharmac. Exp. Ther., 141, 369 (1963)). Table III reports the compounds tested, their concentrations, administration routes and relative percent edema inhibition.

[5] = test system: p-phenylquinone-induced writhing; experiment: p-phenylquinone-induced writhing test (analgesic activity); assay type: in vivo; conditions: an hour after administration
Method: as §1
The determination was made an hour after administration of the product. The inhibitory effect on abdominal contractions induced by phenyl-p-quinone was calculated as follows: [formula]
Table IV reports the doses, the administration routes and their effectiveness expressed as % protection.

For CC(=O)Oc1ccccc1C(=O)O [Aspirin, reference compound], which inhibition at 1 µg/mL [1] is on record?
Its inhibition at 1 µg/mL is 15%.

And the inhibition at 5 µg/mL [1]?
The inhibition at 5 µg/mL was 60%.

And the inhibition at 10 µg/mL [1]?
Its inhibition at 10 µg/mL is 100%.

For COc1ccccc1NC(=O)CNC(=O)Cc1ccc(C(=O)c2ccc(C)cc2)n1C [Compound 1d], which Index gastric damage ([2]; 50 mg/kg) is on record?
The Index gastric damage was 9.

What about the “Index gastric damage, signed figure (untitled; difference from Carrier index 8)” value ([2]; 50 mg/kg) of the same compound?
Its value is “+1”.

And the Mean number lesions ([2]; 50 mg/kg)?
The Mean number lesions was 1.

What about the Mean number severity ([2]; 50 mg/kg) of the same compound?
The Mean number severity was 1.

And the Index gastric damage ([2]; 100 mg/kg)?
Its Index gastric damage is 11.

And the “Index gastric damage, signed figure (untitled; difference from Carrier index 8)” value ([2]; 100 mg/kg)?
Its value is “+3”.

What about the Mean number lesions ([2]; 100 mg/kg) of the same compound?
The Mean number lesions was 1.

What about the Mean number severity ([2]; 100 mg/kg) of the same compound?
Its Mean number severity is 2.

What about the Index gastric damage ([2]; 200 mg/kg) of the same compound?
Its Index gastric damage is 12.

And the “Index gastric damage, signed figure (untitled; difference from Carrier index 8)” value ([2]; 200 mg/kg)?
Its value is “+4”.

What about the Mean number lesions ([2]; 200 mg/kg) of the same compound?
Its Mean number lesions is 2.

And the Mean number severity ([2]; 200 mg/kg)?
The Mean number severity was 2.

And the Temperature decrease % ([3]; i.p., 50 mg/kg, 1 h)?
Its Temperature decrease % is 18.0%.

And the Temperature decrease % ([3]; i.p., 50 mg/kg, 2 h)?
The Temperature decrease % was 26.0%.

And the Temperature decrease % ([3]; i.p., 50 mg/kg, 3 h)?
The Temperature decrease % was 39.0%.

And the Temperature decrease % ([3]; i.p., 75 mg/kg, 1 h)?
Its Temperature decrease % is 30.0%.

And the Temperature decrease % ([3]; i.p., 75 mg/kg, 2 h)?
Its Temperature decrease % is 36.1%.

What about the Temperature decrease % ([3]; i.p., 75 mg/kg, 3 h) of the same compound?
Its Temperature decrease % is 56.1%.

And the Temperature decrease % ([3]; i.p., 100 mg/kg, 1 h)?
Its Temperature decrease % is 42.0%.

What about the Temperature decrease % ([3]; i.p., 100 mg/kg, 2 h) of the same compound?
The Temperature decrease % was 49.0%.

And the Temperature decrease % ([3]; i.p., 100 mg/kg, 3 h)?
The Temperature decrease % was 48.0%.

And the Temperature decrease % ([3]; os, 50 mg/kg, 1 h)?
Its Temperature decrease % is 16.0%.

What about the Temperature decrease % ([3]; os, 50 mg/kg, 6 h) of the same compound?
The Temperature decrease % was 22.0%.

And the Temperature decrease % ([3]; os, 50 mg/kg, 24 h)?
Its Temperature decrease % is 30.1%.

What about the Temperature decrease % ([3]; os, 75 mg/kg, 1 h) of the same compound?
Its Temperature decrease % is 18.0%.

What about the Temperature decrease % ([3]; os, 75 mg/kg, 6 h) of the same compound?
The Temperature decrease % was 28.0%.

And the Temperature decrease % ([3]; os, 75 mg/kg, 24 h)?
The Temperature decrease % was 48.2%.

What about the Temperature decrease % ([3]; os, 100 mg/kg, 1 h) of the same compound?
The Temperature decrease % was 29.0%.

And the Temperature decrease % ([3]; os, 100 mg/kg, 6 h)?
The Temperature decrease % was 32.0%.

What about the Temperature decrease % ([3]; os, 100 mg/kg, 24 h) of the same compound?
Its Temperature decrease % is 50.0%.

What about the Oedema inhibition % ([4]; i.p., 10 mg/kg, 3 h) of the same compound?
The Oedema inhibition % was 48.7%.

What about the Oedema inhibition % ([4]; i.p., 10 mg/kg, 6 h) of the same compound?
The Oedema inhibition % was 36.5%.

And the Oedema inhibition % ([4]; i.p., 10 mg/kg, 24 h)?
The Oedema inhibition % was 0.0%.

And the Oedema inhibition % ([4]; i.p., 50 mg/kg, 3 h)?
The Oedema inhibition % was 59.2%.

And the Oedema inhibition % ([4]; i.p., 50 mg/kg, 6 h)?
Its Oedema inhibition % is 52.0%.

And the Oedema inhibition % ([4]; i.p., 50 mg/kg, 24 h)?
The Oedema inhibition % was 18.9%.

What about the Oedema inhibition % ([4]; i.p., 100 mg/kg, 3 h) of the same compound?
Its Oedema inhibition % is 78.6%.

What about the Oedema inhibition % ([4]; i.p., 100 mg/kg, 6 h) of the same compound?
The Oedema inhibition % was 66.3%.

What about the Oedema inhibition % ([4]; i.p., 100 mg/kg, 24 h) of the same compound?
Its Oedema inhibition % is 30.5%.

What about the Oedema inhibition % ([4]; os, 10 mg/kg, 3 h) of the same compound?
Its Oedema inhibition % is 47.2%.

And the Oedema inhibition % ([4]; os, 10 mg/kg, 6 h)?
Its Oedema inhibition % is 40.0%.

And the Oedema inhibition % ([4]; os, 10 mg/kg, 24 h)?
The Oedema inhibition % was 9.0%.

And the Oedema inhibition % ([4]; os, 50 mg/kg, 3 h)?
Its Oedema inhibition % is 58.5%.

What about the Oedema inhibition % ([4]; os, 50 mg/kg, 6 h) of the same compound?
The Oedema inhibition % was 54.0%.

And the Oedema inhibition % ([4]; os, 50 mg/kg, 24 h)?
The Oedema inhibition % was 30.0%.

And the Oedema inhibition % ([4]; os, 100 mg/kg, 3 h)?
The Oedema inhibition % was 77.1%.

What about the Oedema inhibition % ([4]; os, 100 mg/kg, 6 h) of the same compound?
The Oedema inhibition % was 66.0%.

And the Oedema inhibition % ([4]; os, 100 mg/kg, 24 h)?
The Oedema inhibition % was 38.0%.

What about the “antinflammatory, analgesic and antipyretic activity versus ester analogue (4) (in words)” value ([4]; rat, in vivo) of the same compound?
The value was “comparable to that of the ester analogue (4)”.

And the “anti-platelet aggregant activity (in words)” value [1]?
The value was “particularly pronounced anti-platelet aggregant activity”.

And the inhibition at 1 µg/mL ([1]; 1 γ/ml, ADP 7.08 μmol/l)?
The inhibition at 1 µg/mL was 20%.

What about the inhibition at 5 µg/mL ([1]; 5 γ/ml, ADP 7.08 μmol/l) of the same compound?
The inhibition at 5 µg/mL was 70%.

And the inhibition at 10 µg/mL ([1]; 10 γ/ml, ADP 7.08 μmol/l)?
Its inhibition at 10 µg/mL is 90%.

What about the Protection % ([5]; i.p., 5 mg/kg) of the same compound?
Its Protection % is 29.0%.

What about the Protection % ([5]; i.p., 10 mg/kg) of the same compound?
Its Protection % is 60.1%.

And the Protection % ([5]; i.p., 20 mg/kg)?
Its Protection % is 73.4%.

And the Protection % ([5]; os, 5 mg/kg)?
The Protection % was 22.9%.

What about the Protection % ([5]; os, 10 mg/kg) of the same compound?
Its Protection % is 54.2%.

And the Protection % ([5]; os, 20 mg/kg)?
The Protection % was 70.1%.
